# Test results as given in patent US5604095A, “Unsymmetrically linked bisnaphthalimides as antitumor agents” (Cancer Therapy & Research Center, priority 1994, dated 1997).
# Read-outs that look alike come from different tables or passages of the source.
# Key:
# [1] = cited from earlier work
# [2] = system: MX-1 human breast carcinoma; conditions: literature; cited from earlier work
# [3] = system: DLD-2 human colon adenocarcinoma; conditions: literature; cited from earlier work
# [4] = system: B16 melanoma; conditions: Chen et al., 1993; cited from earlier work
# [5] = Calabresi and Chabner, 1990; cited from earlier work
# [6] = system: B16 melanoma; assay: In vivo tumor inhibiting activity vs. B16 melanoma in B6D2F1 mice; conditions: q.d. × 5, i.p., day 7
# Protocol: B16 Melanoma: B6D2F1 mice received i.p. inocula of B16 murine melanoma brei prepared from B16 tumors growing subcutaneously in mice (day 0). On day 1, rumored mice were treated with drugs or vehicle control; the route of drug administration and schedule were selected as appropriate for the study in question. If dosing information for agents was not available, the maximum tolerated dose (MTD) was determined in initial dose finding experiments in non-rumored mice. In a typical experiment, drugs were given at their MTD and 1/2 MTD doses i.p. on a daily×5 schedule.
# The mean survival times of all groups were calculated, and results were expressed as mean survival of treated mice/mean survival of control mice (T/C)×100%. A T/C value of 150 means that the mice in the treated group lived 50% longer than those of the control group; this is sometimes referred to as the increase in life space, or ILS value.
# Mice that survived for 60 days were considered long term survivors, or cures, in the B16 model. The universally accepted cut-off for activity in this model, which has been used for years by the National Cancer Institute, is T/C=125. Conventional use of B16 over the years has set the following levels of activity: T/C<125, no activity; T/C=125-150, weak activity; T/C=150-200, modest activity; T/C=200-300, high activity; T/C>300, with long term survivors, excellent, curative activity (Goldin et al., 1981).
# Statistics were performed on the data using primarily the log rank p-value test.
# [7] = system: solid tumor xenografts, human and murine leukemia, doxorubicin resistant cell lines, colon carcinoma cells; conditions: cited from earlier work
# [8] = system: LX-1 lung carcinoma; conditions: literature; cited from earlier work
smiles,measurement,setting,value
CS(=O)(=O)O.O=C1c2cccc3cc([N+](=O)[O-])cc(c23)C(=O)N1CCCCNCCCN1C(=O)c2cccc3cc([N+](=O)[O-])cc(c23)C1=O [XB596],water solubility,"[1]; Sun et al., 1993",45 µg/mL
same,in vivo anti-tumor activity against MX-1,[2],demonstrated in vivo anti-tumor activity
same,in vivo anti-tumor activity against DLD-2,[3],demonstrated in vivo anti-tumor activity
same,activity against B16 melanoma,[4],ineffective against B16 melanoma
COc1cccc2c1C(=O)c1c(O)c3c(c(O)c1C2=O)C[C@@](O)(C(=O)CO)C[C@@H]3O[C@H]1C[C@H](N)[C@H](O)[C@H](C)O1 [doxorubicin],cardiomyopathy,[5],limited by an unusual cardiomyopathy
"C[C@H](CNCCNC[C@@H](C)N1C(=O)c2cccc3cc([N+](=O)[O-])cc(c23)C1=O)N1C(=O)c2cccc3cc([N+](=O)[O-])cc(c23)C1=O [DMP840, (R,R)-2,2'[1,2-ethanediylbis[imino(1-methyl-2,1-ethanediyl)]]-bis[5-nitro-1H-benz[de]isoquinoline-1,3-(2H)-dione] dimethanesulfonate]",Wt. Ch. (Day 7),[6]; 5 mg/kg,+4.6%
same,Wt. Ch. (Day 7),[6]; 10 mg/kg,-0.33%
same,water solubility,[1]; reported,3400 µg/mL
same,in vivo anti-tumor activity against MX-1,[2],anti-tumor efficacy in vivo
same,in vivo anti-tumor activity against DLD-2,[3],anti-tumor efficacy in vivo
same,toxicity,[7]; literature,no irreversible toxicities
same,anti-tumor efficacy in vivo,"[7]; solid tumor xenografts, leukemia, doxorubicin resistant lines, colon carcinoma",anti-tumor efficacy in vivo
same,anti-tumor efficacy in vivo against LX-1 lung carcinoma,[8],anti-tumor efficacy in vivo
